Measurements from patent publication US11739098B2 (BRISTOL-MYERS SQUIBB COMPANY, priority 2017, dated 2023).

Key:
Format in all cases: cell-based
human TLR7 = target: T1, human TLR7 (Homo sapiens, UniProt Q9NYK1); assay: TLR7 inhibition reporter assay (HEK-Blue cells, SEAP reporter, gardiquimod stimulation); settings: HEK-Blue cells overexpressing human TLR7, SEAP reporter, gardiquimod 7.5 μM
T1 construct: host or cells: HEK-Blue cells (HEK293-derived reporter line)
T1 sequence (Q9NYK1 27-1049): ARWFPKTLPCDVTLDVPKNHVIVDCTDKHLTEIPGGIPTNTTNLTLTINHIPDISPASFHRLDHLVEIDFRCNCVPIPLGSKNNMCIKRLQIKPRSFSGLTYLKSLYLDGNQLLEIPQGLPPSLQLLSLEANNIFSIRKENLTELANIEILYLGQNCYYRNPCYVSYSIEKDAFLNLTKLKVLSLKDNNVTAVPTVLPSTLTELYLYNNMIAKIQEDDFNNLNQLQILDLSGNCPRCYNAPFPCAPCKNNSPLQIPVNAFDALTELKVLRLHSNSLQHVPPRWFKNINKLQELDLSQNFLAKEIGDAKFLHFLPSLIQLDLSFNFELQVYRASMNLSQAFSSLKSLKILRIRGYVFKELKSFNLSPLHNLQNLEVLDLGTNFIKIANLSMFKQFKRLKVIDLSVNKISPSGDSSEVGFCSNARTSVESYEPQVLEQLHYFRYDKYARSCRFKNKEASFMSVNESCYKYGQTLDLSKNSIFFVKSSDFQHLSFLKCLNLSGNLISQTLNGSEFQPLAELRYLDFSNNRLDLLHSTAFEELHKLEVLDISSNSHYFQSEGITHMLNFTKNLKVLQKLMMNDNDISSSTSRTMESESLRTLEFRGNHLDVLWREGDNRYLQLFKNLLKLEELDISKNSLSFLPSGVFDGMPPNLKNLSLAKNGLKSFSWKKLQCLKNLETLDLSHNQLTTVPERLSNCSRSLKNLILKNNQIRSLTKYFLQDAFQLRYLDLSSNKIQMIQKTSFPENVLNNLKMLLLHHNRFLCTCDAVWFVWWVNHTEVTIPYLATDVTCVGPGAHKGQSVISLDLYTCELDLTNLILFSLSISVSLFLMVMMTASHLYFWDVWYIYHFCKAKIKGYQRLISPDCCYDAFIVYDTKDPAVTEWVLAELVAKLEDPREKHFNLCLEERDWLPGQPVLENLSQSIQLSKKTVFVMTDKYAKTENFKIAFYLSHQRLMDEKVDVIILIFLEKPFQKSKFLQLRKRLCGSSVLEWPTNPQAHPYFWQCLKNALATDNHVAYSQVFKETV
Method in brief: (§1)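 Percent inhibition of agonist-induced SEAP secretion in HEK-Blue cells after 22 h at 37 °C. Stimuli: 7.5 μM gardiquimod, 15.9 μM R848, 5 nM ODN2006 for TLR7, TLR8 and TLR9, added after 30 min compound exposure over a 0.05 nM–50 μM range.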

human TLR8 = target: T2, human TLR8 (Homo sapiens, UniProt Q9NR97); assay: TLR8 inhibition reporter assay (HEK-Blue cells, SEAP reporter, R848 stimulation); settings: HEK-Blue cells overexpressing human TLR8, SEAP reporter, R848 15.9 μM
T2 construct: host or cells: HEK-Blue cells (HEK293-derived reporter line)
T2 sequence (Q9NR97 27-1041): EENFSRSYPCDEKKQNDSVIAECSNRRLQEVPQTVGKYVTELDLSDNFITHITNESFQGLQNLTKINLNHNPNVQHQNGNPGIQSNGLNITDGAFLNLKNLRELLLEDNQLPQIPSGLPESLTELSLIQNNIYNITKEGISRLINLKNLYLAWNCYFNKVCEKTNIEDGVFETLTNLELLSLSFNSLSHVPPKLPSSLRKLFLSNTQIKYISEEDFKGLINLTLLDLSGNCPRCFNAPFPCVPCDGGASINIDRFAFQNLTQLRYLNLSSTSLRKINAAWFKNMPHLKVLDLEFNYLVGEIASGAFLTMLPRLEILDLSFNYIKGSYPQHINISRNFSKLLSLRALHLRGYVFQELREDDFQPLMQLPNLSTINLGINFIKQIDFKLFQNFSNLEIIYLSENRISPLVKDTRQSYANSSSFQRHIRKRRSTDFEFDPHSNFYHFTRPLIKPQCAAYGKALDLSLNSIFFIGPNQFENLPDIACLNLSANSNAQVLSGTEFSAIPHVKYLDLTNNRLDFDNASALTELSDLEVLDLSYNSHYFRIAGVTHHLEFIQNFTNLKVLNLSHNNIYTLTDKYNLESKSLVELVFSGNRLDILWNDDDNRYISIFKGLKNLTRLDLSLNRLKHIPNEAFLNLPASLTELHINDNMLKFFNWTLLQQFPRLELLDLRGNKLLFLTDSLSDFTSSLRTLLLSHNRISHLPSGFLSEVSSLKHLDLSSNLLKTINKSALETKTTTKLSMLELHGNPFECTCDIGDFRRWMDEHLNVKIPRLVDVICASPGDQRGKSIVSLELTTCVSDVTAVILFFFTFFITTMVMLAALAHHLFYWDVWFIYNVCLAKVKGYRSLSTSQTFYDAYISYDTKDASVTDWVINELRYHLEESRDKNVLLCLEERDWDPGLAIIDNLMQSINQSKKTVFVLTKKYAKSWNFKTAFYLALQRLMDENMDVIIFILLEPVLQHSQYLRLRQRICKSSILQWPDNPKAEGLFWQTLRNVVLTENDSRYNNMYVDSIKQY
Method in brief: as §1

human TLR9 = target: T3, human TLR9 (Homo sapiens, UniProt Q9NR96); assay: TLR9 inhibition reporter assay (HEK-Blue cells, SEAP reporter, ODN2006 stimulation); settings: HEK-Blue cells overexpressing human TLR9, SEAP reporter, ODN2006 5 nM
T3 construct: host or cells: HEK-Blue cells (HEK293-derived reporter line)
T3 sequence (Q9NR96 26-1032): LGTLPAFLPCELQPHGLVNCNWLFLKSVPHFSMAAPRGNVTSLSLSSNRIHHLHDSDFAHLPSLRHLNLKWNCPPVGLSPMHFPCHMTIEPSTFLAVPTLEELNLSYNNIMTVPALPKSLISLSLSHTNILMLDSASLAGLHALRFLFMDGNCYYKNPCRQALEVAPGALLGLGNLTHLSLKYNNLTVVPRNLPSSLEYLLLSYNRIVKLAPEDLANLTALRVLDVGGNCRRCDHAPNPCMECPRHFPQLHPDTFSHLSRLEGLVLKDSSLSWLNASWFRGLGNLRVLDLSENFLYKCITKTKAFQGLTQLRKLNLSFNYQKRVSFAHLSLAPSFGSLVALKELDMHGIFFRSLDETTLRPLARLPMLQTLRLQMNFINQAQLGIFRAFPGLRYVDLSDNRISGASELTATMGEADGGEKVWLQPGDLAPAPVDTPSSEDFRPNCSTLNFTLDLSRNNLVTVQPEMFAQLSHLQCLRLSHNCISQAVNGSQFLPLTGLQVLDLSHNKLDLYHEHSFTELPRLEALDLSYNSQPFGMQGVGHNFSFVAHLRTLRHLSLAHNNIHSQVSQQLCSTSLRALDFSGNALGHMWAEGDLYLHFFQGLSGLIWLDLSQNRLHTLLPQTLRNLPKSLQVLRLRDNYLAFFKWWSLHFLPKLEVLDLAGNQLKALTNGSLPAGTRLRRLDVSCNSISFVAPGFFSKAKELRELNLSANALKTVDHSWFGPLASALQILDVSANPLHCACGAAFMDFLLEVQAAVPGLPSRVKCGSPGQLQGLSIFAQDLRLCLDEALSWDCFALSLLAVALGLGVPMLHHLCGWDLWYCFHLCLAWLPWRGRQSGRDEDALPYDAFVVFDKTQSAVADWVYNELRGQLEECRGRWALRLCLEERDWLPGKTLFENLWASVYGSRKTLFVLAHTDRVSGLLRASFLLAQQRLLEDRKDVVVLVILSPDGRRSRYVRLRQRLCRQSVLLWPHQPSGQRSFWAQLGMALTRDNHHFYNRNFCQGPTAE
Method in brief: as §1

IC50 (human TLR7) [nM] | IC50 (human TLR8) [nM] | IC50 (human TLR9) [nM] | Structure (SMILES)
< 100 | < 100 | 1000 to 50000 | CC(=O)N1CCC(N2CCC(c3ccc4[nH]c(-c5ccnc6[nH]ncc56)c(C(C)C)c4c3)CC2)CC1 [Example 823, 1-(4-(3-isopropyl-2-(1H-pyrazolo[3,4-b]pyridin-4-yl)-1H-indol-5-yl)-[1,4′-bipiperidin]-1′-yl)ethan-1-one]
< 100 | < 100 | 1000 to 50000 | CC(C)c1c(-c2ccnc3[nH]ncc23)[nH]c2ccc(C3CCN(Cc4cn5ccccc5n4)CC3)cc12 [Example 862, 4-(5-(1-(imidazo[1,2-a]pyridin-2-ylmethyl)piperidin-4-yl)-3-isopropyl-1H-indol-2-yl)-1H-pyrazolo[3,4-b]pyridine]
100 to 1000 | 100 to 1000 | 1000 to 50000 | CCOC(=O)N1CCC(N2CCC(c3ccc4[nH]c(-c5ccnc6[nH]ncc56)c(C(C)C)c4c3)CC2)C(C)C1 (stereo not drawn) [Example 835, ethyl 4-(3-isopropyl-2-(1H-pyrazolo[3,4-b]pyridin-4-yl)-1H-indol-5-yl)-3′-methyl-[1,4′-bipiperidine]-1′-carboxylate]
< 100 | < 100 | 1000 to 50000 | CC(C)c1c(-c2ccnc3[nH]ncc23)[nH]c2ccc(C3CCN(Cc4cnc(N)s4)CC3)cc12 [Example 926, 5-((4-(3-isopropyl-2-(1H-pyrazolo[3,4-b]pyridin-4-yl)-1H-indol-5-yl)piperidin-1-yl)methyl)thiazol-2-amine]
100 to 1000 | < 100 | < 100 | Cc1c(-c2ncnc3[nH]ncc23)[nH]c2ccc(C3CCN(C4CCN(C(C)C)CC4)CC3)cc12 [Example 816, 4-(5-(1′-isopropyl-[1,4′-bipiperidin]-4-yl)-3-methyl-1H-indol-2-yl)-1H-pyrazolo[3,4-d]pyrimidine]

Further lines, the compound ahead of its results:

Structure (SMILES) | IC50 (human TLR7) [nM] | IC50 (human TLR8) [nM] | IC50 (human TLR9) [nM]
CC(C)c1c(-c2ccc3nncn3n2)[nH]c2ccc(C3CCNCC3)cc12 [Example 185, 6-(3-isopropyl-5-(piperidin-4-yl)-1H-indol-2-yl)-[1,2,4] triazolo[4,3-b]pyridazine] | 100 to 1000 | 100 to 1000 | 1000 to 50000
CC(C)c1c(-c2ccc3oc(=O)[nH]c3c2)[nH]c2ccc(C3CCNCC3)cc12 [Example 11, 5-(3-isopropyl-5-(piperidin-4-yl)-1H-indol-2-yl)benzo[d]oxazol-2(3H)-one] | < 100 | 100 to 1000 | 100 to 1000
Cc1ccnc2c1c(-c1[nH]c3ccc(C4CCNCC4)cc3c1C(C)C)cn2C [Example 35, 3-(3-isopropyl-5-(piperidin-4-yl)-1H-indol-2-yl)-1,4-dimethyl-1H-pyrrolo[2,3-b]pyridine] | < 100 | < 100 | 1000 to 50000
Cc1nc2c(-c3[nH]c4ccc(C5CCNCC5)cc4c3C)ccnc2[nH]1 [Example 232, 2-methyl-7-(3-methyl-5-(piperidin-4-yl)-1H-indol-2-yl)-3H-imidazo[4,5-b]pyridine] | 1000 to 50000 | 1000 to 50000 | 100 to 1000
Cc1cc(-c2[nH]c3ccc(C4CCN(CC(N)=O)CC4)cc3c2C(C)C)cn2nnnc12 [Example 311, 2-(4-(3-isopropyl-2-(8-methyltetrazolo[1,5-a]pyridin-6-yl)-1H-indol-5-yl)piperidin-1-yl) acetamide] | < 100 | < 100 | 1000 to 50000
CN(C)CC(=O)N1CCC(c2ccc3[nH]c(-c4cc(F)c5nccn5c4)c(CC(F)F)c3c2)CC1 [Example 546, 1-(4-(3-(2,2-difluoroethyl)-2-(8-fluoroimidazo[1,2-a]pyridin-6-yl)-1H-indol-5-yl)piperidin-1-yl)-2-(dimethylamino)ethan-1-one] | < 100 | 100 to 1000 | 100 to 1000
Cc1cc(-c2[nH]c3ccc(C4CCNCC4)cc3c2C(C)C)cc2cccnc12 [Example 141, 6-(3-isopropyl-5-(piperidin-4-yl)-1H-indol-2-yl)-8-methylquinoline] | < 100 | < 100 | 1000 to 50000
Cc1cc(-c2[nH]c3ccc(C4CCN(C(=O)CCN5CCC6CC65)CC4)cc3c2C(C)C)cn2nnnc12 (stereo not drawn) [Example 632, 3-(2-azabicyclo[3.1.0]hexan-2-yl)-1-(4-(3-isopropyl-2-(8-methyltetrazolo[1,5-a]pyridin-6-yl)-1H-indol-5-yl)piperidin-1-yl)propan-1-one] | < 100 | < 100 | 1000 to 50000
CC(C)c1c(-c2cn(C)c3ncccc23)[nH]c2ccc(C3CCNCC3)cc12 [Example 48, 3-(3-isopropyl-5-(piperidin-4-yl)-1H-indol-2-yl)-1-methyl-1H-pyrrolo[2,3-b]pyridine] | < 100 | < 100 | 1000 to 50000
Cc1cc(-c2[nH]c3ccc(C4CCN(CC(=O)N(C)C)CC4)cc3c2C(C)C)cn2c(C#N)cnc12 [Example 430, 2-(4-(2-(3-cyano-8-methylimidazo [1,2-a]pyridin-6-yl)-3-isopropyl-1H-indol-5-yl)piperidin-1-yl)-N,N-dimethylacetamide] | 100 to 1000 | < 100 | 1000 to 50000
